US10934277B2, “Enantiomerically purified GPER agonist for use in treating disease states and conditions” (Linnaeus Therapeutics, Inc., priority 2018, dated 2021)
Values joined by “and” are separate entries in the source; they are usually repeats but may differ in a detail not shown here. Equal entries are not always repeated.

How the values were obtained:
pKa titration test = format: physicochemical; conditions: range of 3-11
HTR2B = HTR2B (Homo sapiens, UniProt P41595); assay: Off target selectivity assay, HTR2B; format: cell-based; conditions: dose response, concentrations up to 10 μM; read-out: IC50 or EC50 on HTR2B
Chain of HTR2B (P41595 whole entry): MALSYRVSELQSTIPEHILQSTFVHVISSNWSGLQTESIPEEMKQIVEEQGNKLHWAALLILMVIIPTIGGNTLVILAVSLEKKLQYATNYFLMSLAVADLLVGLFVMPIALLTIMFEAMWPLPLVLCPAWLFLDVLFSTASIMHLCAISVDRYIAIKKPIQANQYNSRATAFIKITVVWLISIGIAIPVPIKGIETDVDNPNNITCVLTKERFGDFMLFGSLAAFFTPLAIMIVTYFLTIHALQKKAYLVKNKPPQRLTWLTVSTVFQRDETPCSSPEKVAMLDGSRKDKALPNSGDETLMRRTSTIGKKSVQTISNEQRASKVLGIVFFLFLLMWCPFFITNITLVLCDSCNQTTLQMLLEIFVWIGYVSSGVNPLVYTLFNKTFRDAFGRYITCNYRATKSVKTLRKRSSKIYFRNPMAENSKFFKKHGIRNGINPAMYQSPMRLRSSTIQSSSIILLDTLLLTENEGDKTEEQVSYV
Method: (§1) Final assay vehicle concentration was 1%.
(§2) For Gi coupled GPCRs, EC80 forskolin was included.
(§3) DMSO concentration for all readouts is ≤0.2%.
(§4) Probenicid was prepared fresh. Cells were loaded with dye prior to testing.

OPRM1 = OPRM1 (Homo sapiens, UniProt P35372); assay: Off target selectivity assay, OPRM1; format: cell-based; conditions: dose response, concentrations up to 10 μM; read-out: IC50 or EC50 on OPRM1
Chain of OPRM1 (P35372 whole entry): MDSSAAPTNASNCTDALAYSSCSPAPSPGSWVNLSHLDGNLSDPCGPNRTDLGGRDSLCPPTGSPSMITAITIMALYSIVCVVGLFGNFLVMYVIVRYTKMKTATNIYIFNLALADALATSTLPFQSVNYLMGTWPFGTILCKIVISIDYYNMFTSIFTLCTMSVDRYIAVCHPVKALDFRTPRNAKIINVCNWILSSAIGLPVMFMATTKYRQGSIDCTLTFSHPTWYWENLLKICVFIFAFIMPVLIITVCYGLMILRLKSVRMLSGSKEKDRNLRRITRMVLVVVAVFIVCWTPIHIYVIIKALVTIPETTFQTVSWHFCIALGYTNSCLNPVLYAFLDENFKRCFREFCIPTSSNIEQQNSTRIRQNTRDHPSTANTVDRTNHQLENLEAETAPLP
Method: as §1, §2, §3, §4

CYP3A4 = assay: Cytochrome P450 induction in hepatocytes, CYP3A4; format: in vitro ADME; conditions: hepatocytes from three different human cell lines; 1 μM, 10 μM and 100 μM
[1] = LogD7.4 by shake-flask method (pH 7.4 phosphate buffer / n-octanol); format: physicochemical; conditions: for Concentration in pH buffer 7.4: aqueous phase
Method: Log D7.4 was measured with the solvent systems of pH 7.4 phosphate buffer and n-octanol by shake-flask method.

OCT2 = molecular target: T1, OCT2 (Homo sapiens, UniProt O15244); assay: Drug transporter fluorometric inhibition, OCT2; format: in vitro ADME
T1 sequence (O15244 1-555): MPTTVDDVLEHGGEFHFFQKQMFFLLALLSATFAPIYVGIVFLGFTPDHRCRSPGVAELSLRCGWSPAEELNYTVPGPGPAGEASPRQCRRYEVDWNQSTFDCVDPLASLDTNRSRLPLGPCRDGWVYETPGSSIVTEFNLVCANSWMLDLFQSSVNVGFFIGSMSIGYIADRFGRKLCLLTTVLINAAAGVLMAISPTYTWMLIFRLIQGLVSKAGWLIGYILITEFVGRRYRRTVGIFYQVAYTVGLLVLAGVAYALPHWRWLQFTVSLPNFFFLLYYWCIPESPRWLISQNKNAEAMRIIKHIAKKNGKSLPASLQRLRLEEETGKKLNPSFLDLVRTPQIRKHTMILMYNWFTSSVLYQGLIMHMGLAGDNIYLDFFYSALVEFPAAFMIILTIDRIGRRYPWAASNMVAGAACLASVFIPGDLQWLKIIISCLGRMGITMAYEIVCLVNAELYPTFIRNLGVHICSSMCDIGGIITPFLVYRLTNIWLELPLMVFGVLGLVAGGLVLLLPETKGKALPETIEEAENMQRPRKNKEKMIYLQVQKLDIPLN
Method: Drug transporter (fluorometric inhibition)
The percent of control was calculated using the following equation. The percent of inhibition was calculated by subtracting the percent of control from 100. The IC50 value (concentration causing a half-maximal inhibition of the control value) was determined by non-linear regression analysis of the concentration-response curve using the Hill equation.
Compound is the individual reading in the presence of the test compound. T1 is the mean reading in the absence of the test compound. Background (for P-gp and BCRP) is the mean reading in the presence of the highest effective concentration of the reference inhibitor. Background (for OATP1B1, OATP1B3, OAT1, OAT3, and OCT2) is the mean reading in the absence of both the test compound and the substrate.

AR = molecular target: T2, AR (Homo sapiens, UniProt P10275); assay: Off target selectivity assay, Nuclear Hormone Receptor AR
T2 sequence (P10275 1-920): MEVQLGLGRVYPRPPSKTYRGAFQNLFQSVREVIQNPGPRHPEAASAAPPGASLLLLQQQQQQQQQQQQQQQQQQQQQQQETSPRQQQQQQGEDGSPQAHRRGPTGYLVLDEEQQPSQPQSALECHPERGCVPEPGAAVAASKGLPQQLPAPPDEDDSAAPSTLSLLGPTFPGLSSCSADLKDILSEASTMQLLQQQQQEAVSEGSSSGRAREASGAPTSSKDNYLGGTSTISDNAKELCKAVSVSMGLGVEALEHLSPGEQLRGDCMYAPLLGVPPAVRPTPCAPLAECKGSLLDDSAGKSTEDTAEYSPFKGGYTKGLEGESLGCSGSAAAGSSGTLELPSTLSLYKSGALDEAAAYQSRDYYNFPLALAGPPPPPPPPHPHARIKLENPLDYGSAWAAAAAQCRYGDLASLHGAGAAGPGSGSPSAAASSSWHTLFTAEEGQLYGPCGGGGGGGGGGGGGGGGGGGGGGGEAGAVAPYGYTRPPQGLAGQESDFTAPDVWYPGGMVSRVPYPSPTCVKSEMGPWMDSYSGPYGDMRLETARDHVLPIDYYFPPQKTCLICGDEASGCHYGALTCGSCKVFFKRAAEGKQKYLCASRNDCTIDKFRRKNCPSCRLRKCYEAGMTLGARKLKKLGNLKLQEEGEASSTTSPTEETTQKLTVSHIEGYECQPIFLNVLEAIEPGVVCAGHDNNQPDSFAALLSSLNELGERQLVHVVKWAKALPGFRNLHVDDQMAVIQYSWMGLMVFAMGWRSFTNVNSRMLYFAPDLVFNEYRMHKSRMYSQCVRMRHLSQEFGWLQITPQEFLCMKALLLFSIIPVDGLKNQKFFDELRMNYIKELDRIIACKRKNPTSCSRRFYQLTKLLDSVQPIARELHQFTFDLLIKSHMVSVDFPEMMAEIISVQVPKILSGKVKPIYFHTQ

ADRA2A = molecular target: T3, ADRA2A (Homo sapiens, UniProt P08913); assay: Off target selectivity assay, ADRA2A; format: cell-based; conditions: dose response, concentrations up to 10 μM; read-out: IC50 or EC50 on ADRA2A
T3 sequence (P08913 1-465): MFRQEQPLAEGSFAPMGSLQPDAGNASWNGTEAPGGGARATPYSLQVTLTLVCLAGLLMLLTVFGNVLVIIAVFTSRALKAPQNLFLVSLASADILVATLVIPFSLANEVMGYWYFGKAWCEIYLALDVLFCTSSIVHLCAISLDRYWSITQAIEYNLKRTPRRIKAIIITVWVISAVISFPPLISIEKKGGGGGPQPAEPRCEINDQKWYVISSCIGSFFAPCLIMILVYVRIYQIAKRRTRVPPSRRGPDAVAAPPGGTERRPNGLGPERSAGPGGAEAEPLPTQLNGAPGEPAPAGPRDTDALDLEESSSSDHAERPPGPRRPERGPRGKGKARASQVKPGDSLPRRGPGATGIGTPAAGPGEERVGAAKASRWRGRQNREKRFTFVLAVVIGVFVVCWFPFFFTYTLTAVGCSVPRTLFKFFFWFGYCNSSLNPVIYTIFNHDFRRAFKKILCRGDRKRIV
Method: as §1, §2, §3, §4

[2] = shake-flask, single samples #1-3

Structure (SMILES) | pKa by titration (pKa titration test) | IC50 (HTR2B) | IC50 (OPRM1) | CYP3A4 induction (CYP3A4) | LogP* ([1]; LogP = LogD(pH) + Log [1 + 10^(pKa −pH)]) | logP ([1]; n-octanol / pH 7.4 phosphate buffer, pH 7.4, LogP = LogD(pH) + Log [1 + 10^(pKa −pH)]) | logD ([1]; n-octanol / pH 7.4 phosphate buffer, shake-flask, pH 7.4 phosphate buffer and n-octanol) | Concentration in pH buffer 7.4 [1, 2] | Concentration in pH buffer 7.4 ([1]; shake-flask, single samples #1-3, listed as SRR G-1 freebase) | Average of LogD7.4 ([1]; shake-flask, pH 7.4 phosphate buffer and n-octanol) | Concentration in n-octanol [1, 2] | LogD7.4 [1, 2] | inhibition at 10 µM (OCT2) | IC50 (AR) | IC50 (ADRA2A)
CC(=O)c1ccc2c(c1)[C@@H]1C=CC[C@@H]1[C@H](c1cc3c(cc1Br)OCO3)N2 (single isomer, unassigned) [SRR G-1] | no pKa value was observed | 8.2 µM | 6.68 µM | induced at only 10 μM in 2 of the 3 cell lines | >3.22 | > 3.22 | > 3.22 | <0.82 μg/mL | < 0.82 μg/mL | > 3.22 | 1370 µg/mL and 1340 µg/mL | >3.22 and >3.21 |  |  | 
CC(=O)c1ccc2c(c1)[C@H]1C=CC[C@H]1[C@@H](c1cc3c(cc1Br)OCO3)N2 [RSS G-1, 1-((3aR,4S,9bS)-4-(6-bromobenzo[d][1,3]dioxol-5-yl)-3a,4,5,9b-tetrahydro-3H-cyclopenta[c]quinolin-8-yl)ethan-1-one] |  |  |  |  |  |  |  |  |  |  |  |  | 53.2% | 4.76 µM | 2.07 µM
